Measured values taken from patent EP4745137A1 (Gluetacs Therapeutics (Shanghai) Co., Ltd., priority 2023, dated 2025).

Tests used:
MGC803 = experiment: Tumor cell proliferation inhibition (CellTiter-Meiluncell Luminescent Cell Viability Assay), MGC803; conditions: Homo sapiens, MGC-803, 96 h, read-out: inhibitory activity (IC50, nM) against tumor cells proliferation, MGC803
Jurkat = experiment: Tumor cell proliferation inhibition (CellTiter-Meiluncell Luminescent Cell Viability Assay), Jurkat; conditions: Homo sapiens, 96 h, read-out: inhibitory activity (IC50, nM) against tumor cells proliferation, Jurkat
Protocol: (§1) The tumor cells used herein were cultured in a cell culture medium listed in table 2 at 37°C in an incubator with 5% CO2. Prior to experimentation, all cell lines used were correctly identified by STR profiling, and tested negative for mycoplasma contamination using a mycoplasma detection kit through routine screenings.
(§2) On the following day, the test compounds of the present disclosure were subjected to serial dilution. […] Subsequently, 0.5 µL of the test compound dilution was transferred into the 96-well plate containing the cells, with each well containing 100 µL of cell culture medium. […] Into the 96-well plate, the diluted test compounds and corresponding detection reagents were added, resulting in final test compound concentrations of 500 nM and 10 nM, respectively. The experimental procedure is described below using the diluted 2 µM test compound as an example.
(§3) After the cells were treated with the compounds of the present disclosure for a specified period (the treatment durations were shown in Table 3), the cell viability assay reagent was added to the culture medium according to the kit's instructions to determine cell viability. […] All controls were treated using the same procedure as the compounds of the present disclosure. The growth inhibition curves for the compounds of the present disclosure were plotted using Prism GraphPad software, and the IC50 values were calculated therefrom.

WEE1 = molecular target: T1, WEE1 (Homo sapiens, UniProt P30291+Q96SW2); experiment: Western-blot assay of substrate protein degradation in hPBMCs, WEE1; assay type: cell-based; conditions: 24 hours of compound treatment, compounds tested at 50 nM and 500 nM (concentration of the table not stated)
T1 construct: endogenous in cells; host or cells: hPBMCs (Milecell Biotechnologies)

CK1α = molecular target: T2, CK1α (Homo sapiens, UniProt P48729+Q96SW2); experiment: Western-blot assay of substrate protein degradation in hPBMCs, CK1α; assay type: cell-based; conditions: 24 hours of compound treatment, compounds tested at 50 nM and 500 nM (concentration of the table not stated)
T2 construct: endogenous in cells; host or cells: hPBMCs (Milecell Biotechnologies)

CAL-62 = experiment: Tumor cell proliferation inhibition (CellTiter-Meiluncell Luminescent Cell Viability Assay), CAL-62; conditions: Homo sapiens, CAL-62, 96 h, read-out: inhibitory activity (IC50, nM) against tumor cells proliferation, CAL-62
IKZF2 = molecular target: T3, IKZF2 (Homo sapiens, UniProt Q96SW2+Q9UKS7); experiment: Western-blot assay of substrate protein degradation in hPBMCs, IKZF2; assay type: cell-based; conditions: 24 hours of compound treatment, compounds tested at 50 nM and 500 nM (concentration of the table not stated)
T3 construct: endogenous in cells; host or cells: hPBMCs (Milecell Biotechnologies)

TMD8 = experiment: Tumor cell proliferation inhibition (CellTiter-Meiluncell Luminescent Cell Viability Assay), TMD8; conditions: Homo sapiens, TMD8, 96 h, read-out: inhibitory activity (IC50, nM) against tumor cells proliferation, TMD8
Protocol: as §1, §2, §3

IKZF3 = molecular target: T4, IKZF3 (Homo sapiens, UniProt Q96SW2+Q9UKT9); experiment: Western-blot assay of substrate protein degradation in hPBMCs, IKZF3; assay type: cell-based; conditions: 24 hours of compound treatment, compounds tested at 50 nM and 500 nM (concentration of the table not stated)
T4 construct: endogenous in cells; host or cells: hPBMCs (Milecell Biotechnologies)

Vcap = experiment: Tumor cell proliferation inhibition (CellTiter-Meiluncell Luminescent Cell Viability Assay), Vcap; conditions: Homo sapiens, 96 h, read-out: inhibitory activity (IC50, nM) against tumor cells proliferation, Vcap
Protocol: as §1, §2, §3

CCRF-CEM = experiment: Tumor cell proliferation inhibition (CellTiter-Meiluncell Luminescent Cell Viability Assay), CCRF-CEM; conditions: Homo sapiens, 96 h, read-out: inhibitory activity (IC50, nM) against tumor cells proliferation, CCRF-CEM
IKZF1 = molecular target: T5, IKZF1 (Homo sapiens, UniProt Q13422+Q96SW2); experiment: Western-blot assay of substrate protein degradation in hPBMCs, IKZF1; assay type: cell-based; conditions: 24 hours of compound treatment, compounds tested at 50 nM and 500 nM (concentration of the table not stated)
T5 construct: endogenous in cells; host or cells: hPBMCs (Milecell Biotechnologies)

GSPT1 = molecular target: T6, GSPT1 (Homo sapiens, UniProt P15170+Q96SW2); experiment: Western-blot assay of substrate protein degradation in hPBMCs, GSPT1; assay type: cell-based; conditions: 24 hours of compound treatment, compounds tested at 50 nM and 500 nM (concentration of the table not stated)
T6 construct: endogenous in cells; host or cells: hPBMCs (Milecell Biotechnologies)

[1] = molecular target: T7, human Cereblon WT GST-tagged protein (Homo sapiens, UniProt Q96SW2); experiment: CRBN-binding affinity by HTRF (CEREBLON BINDING kit); conditions: HTRF inhibitory activity, CEREBLON BINDING kit; read-out: HTRF IC50
T7 construct: purchased CISBIO 64BDCRBNPEH

SW620 = experiment: Tumor cell proliferation inhibition (CellTiter-Meiluncell Luminescent Cell Viability Assay), SW620; conditions: Homo sapiens, SW-620, 96 h, read-out: inhibitory activity (IC50, nM) against tumor cells proliferation, SW620
NCI-H1975 = experiment: Tumor cell proliferation inhibition (CellTiter-Meiluncell Luminescent Cell Viability Assay), NCI-H1975; conditions: Homo sapiens, NCI-H1975, 96 h, read-out: inhibitory activity (IC50, nM) against tumor cells proliferation, H1975
MM.1R = experiment: Tumor cell proliferation inhibition (CellTiter-Meiluncell Luminescent Cell Viability Assay), MM.1R; conditions: Homo sapiens, 96 h, read-out: inhibitory activity (IC50, nM) against tumor cells proliferation, MM.1R
Protocol: as §1, §2, §3

[2] = tested on: Human breast cancer cells (MDA-MB-231); experiment: Tumor cell proliferation inhibition (CellTiter-Meiluncell Luminescent Cell Viability Assay), MDA-MB-231; conditions: MDA-MB-231, 96 h, read-out: inhibitory activity (IC50, nM) against tumor cells proliferation, MDA-MB-231
[3] = tested on: Human acute T lymphocytic leukemia cells (Molt-4); experiment: Tumor cell proliferation inhibition (CellTiter-Meiluncell Luminescent Cell Viability Assay), Molt-4; conditions: MOLT-4, 96 h, read-out: inhibitory activity (IC50, nM) against tumor cells proliferation, Molt 4

T7 sequence (Q96SW2 whole entry): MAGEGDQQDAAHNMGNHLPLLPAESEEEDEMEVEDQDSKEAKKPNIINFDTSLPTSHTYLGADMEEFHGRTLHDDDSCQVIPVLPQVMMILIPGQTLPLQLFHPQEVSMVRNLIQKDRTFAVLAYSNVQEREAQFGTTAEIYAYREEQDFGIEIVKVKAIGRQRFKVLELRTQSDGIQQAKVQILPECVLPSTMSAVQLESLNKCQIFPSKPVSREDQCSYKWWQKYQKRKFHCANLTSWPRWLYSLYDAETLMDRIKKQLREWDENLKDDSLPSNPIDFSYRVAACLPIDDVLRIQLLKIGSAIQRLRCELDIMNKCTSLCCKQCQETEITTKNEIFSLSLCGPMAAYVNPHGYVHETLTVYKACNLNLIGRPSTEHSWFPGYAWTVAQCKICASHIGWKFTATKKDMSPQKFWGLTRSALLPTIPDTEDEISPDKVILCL
T2 sequence (P48729 whole entry): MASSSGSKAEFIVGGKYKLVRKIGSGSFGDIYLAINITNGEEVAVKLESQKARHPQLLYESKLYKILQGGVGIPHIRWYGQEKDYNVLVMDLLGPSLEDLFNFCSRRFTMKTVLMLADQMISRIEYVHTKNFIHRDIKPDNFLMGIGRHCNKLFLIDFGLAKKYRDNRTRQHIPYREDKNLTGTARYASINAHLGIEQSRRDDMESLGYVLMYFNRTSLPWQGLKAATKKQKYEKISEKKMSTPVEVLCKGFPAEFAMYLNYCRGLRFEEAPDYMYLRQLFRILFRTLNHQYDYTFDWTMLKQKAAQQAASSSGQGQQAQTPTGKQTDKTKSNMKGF
T2 sequence (Q96SW2 whole entry): as the sequence (Q96SW2 whole entry) above
T2 sequence (Q16531 whole entry partner): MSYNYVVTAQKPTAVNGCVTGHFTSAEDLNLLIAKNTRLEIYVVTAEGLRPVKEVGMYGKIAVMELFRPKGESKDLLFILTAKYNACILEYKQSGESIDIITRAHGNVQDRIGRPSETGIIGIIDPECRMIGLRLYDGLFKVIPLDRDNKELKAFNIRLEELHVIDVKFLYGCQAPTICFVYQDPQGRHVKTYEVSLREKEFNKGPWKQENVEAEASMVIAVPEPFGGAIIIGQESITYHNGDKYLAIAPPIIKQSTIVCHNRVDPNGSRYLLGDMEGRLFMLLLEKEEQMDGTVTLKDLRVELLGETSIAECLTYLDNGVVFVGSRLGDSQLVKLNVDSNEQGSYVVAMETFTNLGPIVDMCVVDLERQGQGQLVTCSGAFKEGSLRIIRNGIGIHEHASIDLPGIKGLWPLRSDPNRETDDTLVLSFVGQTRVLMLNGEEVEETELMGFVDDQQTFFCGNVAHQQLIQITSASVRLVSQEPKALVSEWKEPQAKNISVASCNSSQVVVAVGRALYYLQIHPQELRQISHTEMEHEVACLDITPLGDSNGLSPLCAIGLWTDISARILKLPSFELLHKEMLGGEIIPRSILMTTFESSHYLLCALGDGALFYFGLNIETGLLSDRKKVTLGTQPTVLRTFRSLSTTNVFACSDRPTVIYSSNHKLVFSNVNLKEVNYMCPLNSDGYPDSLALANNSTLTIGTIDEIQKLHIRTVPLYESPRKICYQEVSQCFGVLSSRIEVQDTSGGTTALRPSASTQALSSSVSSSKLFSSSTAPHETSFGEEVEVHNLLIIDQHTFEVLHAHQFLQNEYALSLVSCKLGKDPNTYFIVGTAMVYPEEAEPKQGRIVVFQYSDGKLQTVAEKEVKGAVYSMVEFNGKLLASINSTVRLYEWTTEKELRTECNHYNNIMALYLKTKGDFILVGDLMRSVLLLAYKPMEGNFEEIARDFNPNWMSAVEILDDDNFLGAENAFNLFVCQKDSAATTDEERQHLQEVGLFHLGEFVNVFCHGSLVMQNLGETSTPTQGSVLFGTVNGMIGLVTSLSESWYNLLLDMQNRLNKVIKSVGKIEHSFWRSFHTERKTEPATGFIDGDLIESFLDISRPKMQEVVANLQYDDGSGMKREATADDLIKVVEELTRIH
T5 sequence (Q13422 whole entry): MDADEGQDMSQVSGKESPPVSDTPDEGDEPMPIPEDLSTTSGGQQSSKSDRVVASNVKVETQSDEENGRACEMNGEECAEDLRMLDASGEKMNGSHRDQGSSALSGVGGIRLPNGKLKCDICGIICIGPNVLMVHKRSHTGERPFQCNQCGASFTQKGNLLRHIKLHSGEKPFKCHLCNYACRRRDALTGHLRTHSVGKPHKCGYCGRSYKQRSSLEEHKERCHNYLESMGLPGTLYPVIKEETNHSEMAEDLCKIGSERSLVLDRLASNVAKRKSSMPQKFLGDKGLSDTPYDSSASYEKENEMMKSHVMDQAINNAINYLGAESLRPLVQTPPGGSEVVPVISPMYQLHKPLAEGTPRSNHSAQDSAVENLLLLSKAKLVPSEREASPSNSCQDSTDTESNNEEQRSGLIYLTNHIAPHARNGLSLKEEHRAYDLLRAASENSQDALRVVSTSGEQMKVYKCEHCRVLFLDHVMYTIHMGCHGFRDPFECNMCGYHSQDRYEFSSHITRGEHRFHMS
T5 sequence (Q96SW2 whole entry): as the sequence (Q96SW2 whole entry) above
T5 sequence (Q16531 whole entry partner): as the sequence (Q16531 whole entry partner) above
T6 sequence (P15170 whole entry): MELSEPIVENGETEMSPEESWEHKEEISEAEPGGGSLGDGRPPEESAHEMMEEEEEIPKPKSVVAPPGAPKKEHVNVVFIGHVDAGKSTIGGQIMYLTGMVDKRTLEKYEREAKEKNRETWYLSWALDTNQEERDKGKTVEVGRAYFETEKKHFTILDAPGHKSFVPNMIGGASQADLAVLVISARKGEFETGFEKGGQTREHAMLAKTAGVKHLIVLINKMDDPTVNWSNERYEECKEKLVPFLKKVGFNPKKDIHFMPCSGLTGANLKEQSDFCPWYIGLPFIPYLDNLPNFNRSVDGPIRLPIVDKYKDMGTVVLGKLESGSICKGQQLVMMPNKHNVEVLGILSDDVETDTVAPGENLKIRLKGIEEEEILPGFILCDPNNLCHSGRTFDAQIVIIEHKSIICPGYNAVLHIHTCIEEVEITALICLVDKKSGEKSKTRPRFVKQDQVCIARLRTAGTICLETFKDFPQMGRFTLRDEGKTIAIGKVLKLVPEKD
T6 sequence (Q96SW2 whole entry): as the sequence (Q96SW2 whole entry) above
T6 sequence (Q16531 whole entry partner): as the sequence (Q16531 whole entry partner) above
T4 sequence (Q9UKT9 whole entry): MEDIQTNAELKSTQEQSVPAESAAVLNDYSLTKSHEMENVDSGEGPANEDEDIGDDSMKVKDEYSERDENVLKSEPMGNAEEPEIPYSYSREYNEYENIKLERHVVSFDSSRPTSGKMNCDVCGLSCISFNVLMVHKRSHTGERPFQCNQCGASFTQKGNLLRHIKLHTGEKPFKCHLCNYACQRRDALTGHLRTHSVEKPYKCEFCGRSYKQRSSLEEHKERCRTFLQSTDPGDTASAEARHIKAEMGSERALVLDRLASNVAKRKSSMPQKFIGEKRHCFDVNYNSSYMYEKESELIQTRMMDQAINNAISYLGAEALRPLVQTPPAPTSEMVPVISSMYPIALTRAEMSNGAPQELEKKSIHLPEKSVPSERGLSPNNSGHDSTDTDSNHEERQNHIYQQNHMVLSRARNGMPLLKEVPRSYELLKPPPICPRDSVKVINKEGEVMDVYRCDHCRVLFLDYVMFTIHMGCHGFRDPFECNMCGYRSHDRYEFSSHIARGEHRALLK
T4 sequence (Q96SW2 whole entry): as the sequence (Q96SW2 whole entry) above
T4 sequence (Q16531 whole entry partner): as the sequence (Q16531 whole entry partner) above
T3 sequence (Q9UKS7 whole entry): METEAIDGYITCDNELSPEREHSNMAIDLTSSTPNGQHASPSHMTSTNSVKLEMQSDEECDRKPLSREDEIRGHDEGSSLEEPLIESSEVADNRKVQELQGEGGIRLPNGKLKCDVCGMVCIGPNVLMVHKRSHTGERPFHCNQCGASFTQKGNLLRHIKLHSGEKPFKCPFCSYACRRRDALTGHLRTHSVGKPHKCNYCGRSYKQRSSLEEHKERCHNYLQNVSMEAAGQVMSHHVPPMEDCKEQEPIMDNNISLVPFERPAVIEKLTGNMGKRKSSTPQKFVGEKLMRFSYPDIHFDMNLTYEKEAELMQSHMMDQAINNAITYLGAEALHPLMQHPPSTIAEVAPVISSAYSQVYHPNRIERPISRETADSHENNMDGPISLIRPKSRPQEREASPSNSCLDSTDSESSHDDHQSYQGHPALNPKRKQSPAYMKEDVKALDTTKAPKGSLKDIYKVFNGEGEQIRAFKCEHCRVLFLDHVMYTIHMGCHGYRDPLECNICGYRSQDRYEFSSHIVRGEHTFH
T3 sequence (Q96SW2 whole entry): as the sequence (Q96SW2 whole entry) above
T3 sequence (Q16531 whole entry partner): as the sequence (Q16531 whole entry partner) above

| Structure (SMILES) | IC50 (MGC803) | IC50 (Jurkat) | IC50 (CAL-62) | IC50 (TMD8) | IC50 (Vcap) | IC50 (CCRF-CEM) | IC50 [1] | IC50 (SW620) | IC50 (NCI-H1975) | IC50 (MM.1R) | IC50 [2] | IC50 [3] | Weel substrate protein remaining % (WEE1) | CK1a substrate protein remaining % (CK1α) | IKZF2 substrate protein remaining % (IKZF2) | IKZF3 substrate protein remaining % (IKZF3) | IKZF 1 substrate protein remaining % (IKZF1) | GSPT1 substrate protein remaining % (GSPT1) |
| --- | --- | --- | --- | --- | --- | --- | --- | --- | --- | --- | --- | --- | --- | --- | --- | --- | --- | --- |
| COc1cccc(N2CCN(Cc3ccc4c(c3)CN(C3CCC(=O)NC3=O)C4=O)CC2)c1 (stereo not shown) [GT-04448, 3-(5-((4-(3-methoxyphenyl)piperazin-1-yl)methyl)-1-oxoisoindolin-2-yl)piperidine-2,6-dione] | 500 to 1000 nM | 10 to 50 nM | 10 to 50 nM |  | 50 to 100 nM | 10 to 50 nM | 1000 to 1500 nM | 100 to 500 nM | 100 to 500 nM | 10 to 50 nM | 500 to 1000 nM | 10 to 50 nM | A (0% ≤ substrate protein remaining % ≤ 80%) | A (0% ≤ substrate protein remaining % ≤ 80%) | A (0% ≤ substrate protein remaining % ≤ 80%) | A (0% ≤ substrate protein remaining % ≤ 80%) | A (0% ≤ substrate protein remaining % ≤ 80%) | A (0% ≤ substrate protein remaining % ≤ 80%) |
| Cc1ccc(Sc2ccccc2N2CCN(Cc3ccc4c(c3)CN(C3CCC(=O)NC3=O)C4=O)CC2)c(C)c1 (stereo not shown) [GT-04203, 3-(5-((4-(2-((2,4-dimethylphenyl)thio)phenyl)piperazin-1-yl)methyl)-1-oxoisoindolin-2-yl)piperidine-2,6-dione] | 100 to 500 nM | 5 to 10 nM | 5 to 10 nM | 10 to 50 nM | 5 to 10 nM | 5 to 10 nM | 500 to 1000 nM | 10 to 50 nM |  |  |  |  | A (0% ≤ substrate protein remaining % ≤ 80%) | A (0% ≤ substrate protein remaining % ≤ 80%) | A (0% ≤ substrate protein remaining % ≤ 80%) | A (0% ≤ substrate protein remaining % ≤ 80%) | A (0% ≤ substrate protein remaining % ≤ 80%) | A (0% ≤ substrate protein remaining % ≤ 80%) |
| O=C1CCC(N2Cc3cc(CN4CCN(c5cccc(C(F)(F)F)n5)CC4)ccc3C2=O)C(=O)N1 (stereo not shown) [GT-04432, 3-(1-oxo-5-((4-(6-(trifluoromethyl)pyridin-2-yl)piperazin-1-yl)methyl)isoindolin-2-yl)piperidine-2,6-dione] | 100 to 500 nM | 1 to 5 nM | 10 to 50 nM |  | 10 to 50 nM | 5 to 10 nM | 500 to 1000 nM | 100 to 500 nM | 100 to 500 nM | 5 to 10 nM | 500 to 1000 nM | 5 to 10 nM | A (0% ≤ substrate protein remaining % ≤ 80%) | B (80%< substrate protein remaining %≤ 100%) | A (0% ≤ substrate protein remaining % ≤ 80%) | A (0% ≤ substrate protein remaining % ≤ 80%) | A (0% ≤ substrate protein remaining % ≤ 80%) | A (0% ≤ substrate protein remaining % ≤ 80%) |
| O=C1CCC(N2Cc3cc(CN4CCC(c5ccccc5)CC4)ccc3C2=O)C(=O)N1 (stereo not shown) [GT-04465, 3-(1-oxo-5-((4-phenylpiperidin-1-yl)methyl)isoindolin-2-yl)piperidine-2,6-dione] | 100 to 500 nM | 10 to 50 nM | 10 to 50 nM |  | 50 to 100 nM | 10 to 50 nM | 1000 to 1500 nM | 100 to 500 nM | 500 to 1000 nM | 10 to 50 nM |  | 10 to 50 nM | A (0% ≤ substrate protein remaining % ≤ 80%) | A (0% ≤ substrate protein remaining % ≤ 80%) | A (0% ≤ substrate protein remaining % ≤ 80%) | A (0% ≤ substrate protein remaining % ≤ 80%) | A (0% ≤ substrate protein remaining % ≤ 80%) | A (0% ≤ substrate protein remaining % ≤ 80%) |
| Cc1ccc(Cl)cc1N1CCN(Cc2ccc3c(c2)CN(C2CCC(=O)NC2=O)C3=O)CC1 (stereo not shown) [GT-04440, 3-(5-((4-(5-chloro-2-methylphenyl)piperazin-1-yl)methyl)-1-oxoisoindolin-2-yl)piperidine-2,6-dione] | 500 to 1000 nM | 10 to 50 nM | 10 to 50 nM |  | 50 to 100 nM | 10 to 50 nM | 500 to 1000 nM | 500 to 1000 nM | 500 to 1000 nM | 10 to 50 nM | 500 to 1000 nM | 5 to 10 nM | A (0% ≤ substrate protein remaining % ≤ 80%) | A (0% ≤ substrate protein remaining % ≤ 80%) | A (0% ≤ substrate protein remaining % ≤ 80%) | A (0% ≤ substrate protein remaining % ≤ 80%) | A (0% ≤ substrate protein remaining % ≤ 80%) | A (0% ≤ substrate protein remaining % ≤ 80%) |

Second part, led by results:

| IC50 (MGC803) | IC50 (Jurkat) | IC50 (CAL-62) | IC50 (TMD8) | IC50 (Vcap) | IC50 (CCRF-CEM) | IC50 [1] | IC50 (SW620) | IC50 (NCI-H1975) | IC50 (MM.1R) | IC50 [2] | IC50 [3] | Structure (SMILES) | Weel substrate protein remaining % (WEE1) | CK1a substrate protein remaining % (CK1α) | IKZF2 substrate protein remaining % (IKZF2) | IKZF3 substrate protein remaining % (IKZF3) | IKZF 1 substrate protein remaining % (IKZF1) | GSPT1 substrate protein remaining % (GSPT1) |
| --- | --- | --- | --- | --- | --- | --- | --- | --- | --- | --- | --- | --- | --- | --- | --- | --- | --- | --- |
| 100 to 500 nM | 10 to 50 nM | 10 to 50 nM | 100 to 500 nM | 10 to 50 nM | 5 to 10 nM | 500 to 1000 nM | 10 to 50 nM |  |  |  |  | O=C1CCC(N2Cc3cc(CN4CCC(c5noc6cc(F)ccc56)CC4)ccc3C2=O)C(=O)N1 (stereo not shown) [GT-04254, 3-(5-((4-(6-fluorobenzo[d]isoxazol-3-yl)piperidin-1-yl)methyl)-1-oxoisoindolin-2-yl)piperidine-2,6-dione] | A (0% ≤ substrate protein remaining % ≤ 80%) | A (0% ≤ substrate protein remaining % ≤ 80%) | A (0% ≤ substrate protein remaining % ≤ 80%) | A (0% ≤ substrate protein remaining % ≤ 80%) | A (0% ≤ substrate protein remaining % ≤ 80%) | A (0% ≤ substrate protein remaining % ≤ 80%) |
| 10 to 50 nM | 1 to 5 nM | 1 to 5 nM | 10 to 50 nM | 1 to 5 nM | 1 to 5 nM | 500 to 1000 nM | 1 to 5 nM |  |  |  |  | O=C1CCC(N2Cc3cc(CN4CCN(c5cccc6sccc56)CC4)ccc3C2=O)C(=O)N1 (stereo not shown) [GT-04202, 3-(5-((4-(benzo[b]thiophen-4-yl)piperazin-1-yl)methyl)-1-oxoisoindolin-2-yl)piperidine-2,6-dione] | A (0% ≤ substrate protein remaining % ≤ 80%) | A (0% ≤ substrate protein remaining % ≤ 80%) | A (0% ≤ substrate protein remaining % ≤ 80%) | A (0% ≤ substrate protein remaining % ≤ 80%) | A (0% ≤ substrate protein remaining % ≤ 80%) | A (0% ≤ substrate protein remaining % ≤ 80%) |
